Article PMC8892843 (The Science of the total environment, 2021)

Legend:
[1] = molecular target: nicotinic receptor (nAChR) found in H. azteca; test: competitive [3H]imidacloprid displacement, filtration; format: binding, Hyalella azteca; conditions: 1 nM [3H]IMI, pH 7.0, 20 °C, crude microsomes 100 μg/mL
[2] = molecular target: nicotinic receptor (nAChR) found in C. dilutus; test: as above; format: binding, Chironomus dilutus; conditions: 1 nM [3H]IMI, pH 7.0, 20 °C, crude microsomes 100 μg/mL

O=[N+]([O-])N=C1NCCN1Cc1ccc(Cl)nc1 [imidacloprid]
IC50 [1]: 8.86 nM
IC50 [2]: 8.04 nM
